15 compounds from patent US20040067531A1, “Methods of modulating protein tyrosine kinase function with substituted indolinone compounds” (SUGEN, INC., priority 1997, published 2004) can be followed below.

Read-outs that look alike come from different tables or passages of the source.

The subject of assay [1] is 3T3 cell line genetically engineered to express human PDGF-R. Description: PDGF-induced BrdU incorporation assay. The conditions noted are these: 3T3 cells expressing human PDGF-R, read-out: PDGF-Induced BrdU Incorp. IC50. It is filed as cell-based. The procedure:
(1) PDGF: human PDGF B/B; 1276-956, Boehringer Mannheim, Germany
(8) 3T3 cell line genetically engineered to express human PDGF-R.
1. Cells were seeded at 8000 cells/well in DMEM, 10% CS, 2 mM Gln in a 96 well plate. Cells were incubated overnight at 37° C. in 5% CO2.
2. After 24 hours, the cells were washed with PBS, and then were serum starved in serum free medium (0% CS DMEM with 0.1% BSA) for 24 hours.
3. On day 3, ligand (PDGF=3.8 nM, prepared in DMEM with 0.1% BSA) and test compounds were added to the cells simultaneously. The negative control wells received serum free DMEM with 0.1% BSA only; the positive control cells received the ligand (PDGF) but no test compound. Test compounds were prepared in serum free DMEM with ligand in a 96 well plate, and serially diluted for 7 test concentrations.
4. After 20 hours of ligand activation, diluted BrdU labeling reagent (1:100 in DMEM, 0.1% BSA) was added and the cells were incubated with BrdU (final concentration=10 μM) for 1.5 hours.
5. After incubation with labeling reagent, the medium was removed by decanting and tapping the inverted plate on a paper towel. FixDenat solution was added (50 μL/well) and the plates were incubated at room temperature for 45 minutes on a plate shaker.
6. The FixDenat solution was thoroughly removed by decanting and tapping the inverted plate on a paper towel. Milk was added (5% dehydrated milk in PBS, 200 μL/well) as a blocking solution and the plate was incubated for 30 minutes at room temperature on a plate shaker.
7. The blocking solution was removed by decanting and the wells were washed once with PBS. Anti-BrdU-POD solution (1:100 dilution in PBS, 1% BSA) was added (100 μL/well), and the plate was incubated for 90 minutes at room temperature on a plate shaker.
8. The antibody conjugate was thoroughly removed by decanting and rinsing the wells 5 times with PBS, and the space was dried by inverting and tapping on a paper towel.
9. TMB substrate solution was added (100 μL/well) and incubated for 20 minutes at room temperature on a plate shaker until color development was sufficient for photometric detection.
10. The absorbance of the samples were measured at 410 nm (in “dual wavelength” mode with a filter reading at 490 nm, as a reference wavelength) on a Dynatech ELISA plate reader.
The IC50 values were measured for several of the compounds of the invention. These values are depicted in Table 10.
On the technique in general: Incorporation of labelled thymidine or its analogues reports DNA synthesis.

The test system of assay [2] is HUV-EC-C cells; aFGF (ECGF). The experiment in a line: HUVEC-aFGF 3H-thymidine incorporation assay. It is filed as cell-based, human.
Procedure: The following protocol is used to measure a compound's activity against VEGF and aFGF, all of which are expressed by HUVEC cells.
Repeat the wash two more times with D-PBS, resuspend the cells in about 1 mL assay medium/15 cm^2 of tissue culture flask.
Add cells to 96-well flat-bottom plates at 100 μL/well or 0.8-1.0×10^4 cells/well; incubate ˜24h at 37° C., 5% CO^2.
Use the same assay medium as mentioned in day 0, step 2 above. Titrations are made by adding 90 μL/well of drug at 200 μM (4× the final well concentration) to the top well of a particular plate column. Since the stock drug concentration is usually 20 mM in DMSO, the 200 μM drug concentration contains 2% DMSO.
Therefore, diluent made up to 2% DMSO in assay medium (F12K+0.5% fetal bovine serum) is used as diluent for the drug titrations in order to dilute the drug but keep the DMSO concentration constant. Add this diluent to the remaining wells in the column at 60 μL/well. Take 60 μL from the 120 μL of 200 μM drug dilution in the top well of the column and mix with the 60 μL in the second well of the column. Take 60 μL from this well and mix with the 60 μL in the third well of the column, and so on until two-fold titrations are completed. When the next-to-the-last well is mixed, take 60 μL of the 120 μL in this well and discard it. Leave the last well with 60 μL of DMSO/media diluent as a non-drug-containing control. Make 9 columns of titrated drug, enough for triplicate wells each for 1) VEGF (obtained from Pepro Tech Inc., catalogue no. […] ECGF comes as a preparation with sodium heparin.
Transfer 50 μL/well of the drug dilutions to the 96-well assay plates containing the 0.8-1.0×10^4 cells/100 μL/well of the HUV-EC-C cells from day 0. and incubate ˜2 h at 37° C., 5% CO2.
In triplicate, add 50 μL/well of 80 μg/mL VEGF, 20 ng/mL ECGF, or media control to each drug condition. As with the drugs, the growth factor concentrations are 4× the desired final concentration. Use the assay media from day 0 step 2 to make the concentrations of growth factors.
Freeze plates overnight at 20° C.
Assay [3] concerns the target T1, FLK-1 receptor (Mus musculus, UniProt P35918).
T1 construct: expressed in transfected cells; host or cells: NIH3T3 C7#3
The experiment in a line: ELISA assay measuring the kinase activity of the FLK-1 receptor in cells engineered to express FLK-1. The format is cell-based. The conditions noted are these: NIH3T3 C7#3 FLK-1 expressing cells, VEGF stimulation, phosphotyrosine ELISA. The procedure:
An ELISA assay was conducted to measure the kinase activity of the FLK-1 receptor and more specifically, the inhibition or activation of TK activity on the FLK-1 receptor. Specifically, the following assay was conducted to measure kinase activity of the FLK-1 receptor in cells genetically engineered to express FLK-1.
(11) NIH3T3 C7#3 Cells (FLK-1 expressing cells);
The following protocol was used for conducting the assay:
1. Coat Corning 96-well elisa plates with 1.0 μg per well Cappel Anti-rabbit IgG antibody in 0.1 M Na2CO3 pH 9.6. Bring final volume to 150 μL per well. Coat plates overnight at 4° C. Plates can be kept up to two weeks when stored at 4° C.
2. Grow cells in Growth media (DMEM, supplemental with 2.0 mM L-Glutamine, 10% FBS) in suitable culture dishes until confluent at 37° C., 5% CO2.
3. Harvest cells by trypsinization and seed in Corning 25850 polystyrene 96-well roundbottom cell plates, 25.000 cells/well in 200 μL of growth media.
4. Grow cells at least one day at 37° C., 5% CO2.
5. Wash cells-with D-PBS 1×.
6. Add 200 μL/well of starvation media (DMEM, 2.0 mM 1-Glutamine, 0.1% FBS). Incubate overnight at 37° C., 5% CO2.
7. Dilute Compounds 1:20 in polypropylene 96 well plates using starvation media. Dilute dimethylsulfoxide 1:20 for use in control wells.
8. Remove starvation media from 96 well cell culture plates and add 162 μL of fresh starvation media to each well.
9. Add 18 μL of 1:20 diluted Compound dilution (from step 7) to each well plus the 1:20 dimethylsulfoxide dilution to the control wells (+/− VEGF), for a final dilution of 1:200 after cell stimulation. Final dimethylsulfoxide is 0.5%. Incubate the plate at 37° C., 5% CO2 for two hours.
10. Remove unbound antibody from ELISA plates by inverting plate to remove liquid. Wash 3 times with TBSW+0.5% ethanolamine, pH 7.0. Pat the plate on a paper towel to remove excess liquid and bubbles.
11. Block plates with TBSW+0.5% Ethanolamine, pH 7.0, 150 μL per well. Incubate plate thirty minutes while shaking on a microliter plate shaker.
12. Wash plate 3 times as described in step 10.
13. […] Bring final volume to 150 μL/well with TBSW+0.5% ethanolamine pH 7.0. Incubate plate for thirty minutes while shaking.
14. Add 180 μL starvation medium to the cells and stimulate cells with 20 μL/well 10.0 mM sodium ortho vanadate and 500 ng/mL VEGF (resulting in a final concentration of 1.0 mM sodium ortho vanadate and 50 ng/mL VEGF per well) for eight minutes at 37° C., 5% CO2. Negative control wells receive only starvation medium.
15. After eight minutes, media should be removed from the cells and washed one time with 200 μL/well PBS.
16. Lyse cells in 150 μL/well HNTG while shaking at room temperature for five minutes. HNTG formulation includes sodium ortho vanadate, sodium pyro phosphate and EDTA.
17. Wash ELISA plate three times as described in step 10.
18. Transfer cell lysates from the cell plate to ELISA plate and incubate while shaking for two hours. To transfer cell lysate pipette up and down while scrapping the wells.
19. Wash plate three times as described in step 10.
20. Incubate ELISA plate with 0.02 μg/well UB40 in TBSW+05% ethanolamine. Bring final volume to 150 μL/well. Incubate while shaking for 30 minutes.
21. Wash plate three times as described in step 10.
22. Incubate ELISA plate with 1:10,000 diluted EIA grade goat anti-mouse IgG conjugated horseradish peroxidase in TBSW+0.5% ethanolamine, pH 7.0. Bring final volume to 150 μL/well. Incubate while shaking for thirty minutes.
23. Wash plate as described in step 10.
24. Add 100 μL of ABTS/H2O2 solution to well. Incubate ten minutes while shaking.
25. Add 100 μL of 0.2 M HCl for 0.1 M HCl final to stop the color development reaction. Shake 1 minute at room temperature. Remove bubbles with slow stream of air and read the ELISA plate in an ELISA plate reader at 410 nm.
The IC50 values were measured for several of the compounds of the invention.
On the technique in general: In an ELISA, binding on a coated surface is turned into a signal by an enzyme label.

T1 sequence (P35918 20-1345): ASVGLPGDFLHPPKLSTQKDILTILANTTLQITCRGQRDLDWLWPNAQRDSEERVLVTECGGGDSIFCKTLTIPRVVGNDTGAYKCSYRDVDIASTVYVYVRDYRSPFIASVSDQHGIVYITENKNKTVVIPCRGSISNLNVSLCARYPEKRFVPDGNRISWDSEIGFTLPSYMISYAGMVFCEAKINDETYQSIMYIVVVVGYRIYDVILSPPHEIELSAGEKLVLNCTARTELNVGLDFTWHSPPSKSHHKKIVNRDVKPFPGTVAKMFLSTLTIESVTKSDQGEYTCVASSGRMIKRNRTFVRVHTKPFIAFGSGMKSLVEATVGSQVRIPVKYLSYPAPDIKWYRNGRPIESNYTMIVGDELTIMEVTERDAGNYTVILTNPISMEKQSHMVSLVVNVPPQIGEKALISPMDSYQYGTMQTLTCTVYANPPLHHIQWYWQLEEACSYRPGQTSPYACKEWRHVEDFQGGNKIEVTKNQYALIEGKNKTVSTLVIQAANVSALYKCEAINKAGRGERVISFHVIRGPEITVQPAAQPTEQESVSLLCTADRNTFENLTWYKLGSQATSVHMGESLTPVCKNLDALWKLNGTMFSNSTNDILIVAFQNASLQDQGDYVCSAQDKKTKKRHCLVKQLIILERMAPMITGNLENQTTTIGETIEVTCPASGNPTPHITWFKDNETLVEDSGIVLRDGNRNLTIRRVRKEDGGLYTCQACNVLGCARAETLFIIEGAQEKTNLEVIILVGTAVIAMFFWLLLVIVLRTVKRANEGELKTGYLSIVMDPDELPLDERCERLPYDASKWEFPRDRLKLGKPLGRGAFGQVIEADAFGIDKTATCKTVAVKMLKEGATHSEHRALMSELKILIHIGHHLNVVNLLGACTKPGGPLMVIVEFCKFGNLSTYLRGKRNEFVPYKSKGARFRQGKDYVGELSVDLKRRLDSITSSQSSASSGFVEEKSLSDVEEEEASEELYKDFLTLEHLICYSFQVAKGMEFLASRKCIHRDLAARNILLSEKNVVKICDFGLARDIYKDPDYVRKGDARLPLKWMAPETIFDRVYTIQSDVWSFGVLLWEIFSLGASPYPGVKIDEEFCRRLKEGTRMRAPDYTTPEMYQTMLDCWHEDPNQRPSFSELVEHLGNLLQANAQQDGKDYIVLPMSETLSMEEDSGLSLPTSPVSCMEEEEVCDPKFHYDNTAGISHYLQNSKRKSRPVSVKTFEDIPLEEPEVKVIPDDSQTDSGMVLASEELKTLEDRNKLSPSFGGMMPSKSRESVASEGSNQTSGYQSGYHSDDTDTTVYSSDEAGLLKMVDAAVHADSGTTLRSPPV

With `COc1ccc2c(c1)NC(=O)C2=Cc1[nH]cc(C)c1CCC(=O)O` [IN-028, 3-[2-(6-Methoxy-2-oxo-1,2-dihydro-indol-3-ylidenemethyl)-4-methyl-1H-pyrrol-3-yl]-propionic acid], the IC50 – broadly, the point on the concentration scale where inhibition reaches its midpoint – in assay [1] (NIH3T3, PDGF 3.8 nM) was determined as 8.7 µM; in assay [2] (Homo sapiens), 4.8 µM; in assay [3], 1.5 µM.

Turning to `Cc1c[nH]c(C=C2C(=O)Nc3ccccc32)c1CCC(=O)O` [IN-026, 3-[4-Methyl-2-(2-oxo-1,2-dihydro-indol-3-ylidenemethyl)-1H-pyrrol-3-yl]-propionic acid], the IC50 in assay [1] (NIH3T3, PDGF 3.8 nM) came out at 20 µM; in assay [2] (Homo sapiens) it was 1.1 µM; in assay [3], 0.2 µM.

With `O=C(O)CCc1c(C=C2C(=O)Nc3ccc(Cl)cc32)[nH]c2c1CCCC2` [IN-002, 3-[2-(5-Chloro-2-oxo-1,2-dihydro-indol-3-ylidenemethyl)-4,5.6,7-tetrahydro-1H-indol-3-yl]-propionic acid], the figures for the IC50 in assay [1] (PDGF […]), in assay [2] and in assay [3] were 1.1 µM, 0.25 µM and 0.022 µM, respectively.

For `Cc1c[nH]c(C=C2C(=O)Nc3ccc(Cl)cc32)c1CCC(=O)O` [IN-027, 3-[2-(5-Chloro-2-oxo-1,2-dihydro-indol-3-ylidenemethyl)-4-methyl-1H-pyrrol-3-yl]-propionic acid], the IC50 was determined as 1.4 µM in assay [2] (Homo sapiens) and 2.9 µM in assay [3].

As to `CNC(=O)CCc1c(C=C2C(=O)Nc3ccccc32)[nH]c2c1CCCC2` [IN-012, N-Methyl-3-[2-(2-oxo-1,2-dihydro-indol-3-ylidenemethyl)-4,5,6,7-tetrahydro-1H-indol-3-yl]-propionamide], the IC50 in assay [1] (NIH3T3, PDGF 3.8 nM) is 3.9 µM; in assay [2] (Homo sapiens), 0.16 µM; in assay [3], below 0.78 µM.

With `NC(=O)CCc1c(C=C2C(=O)Nc3ccccc32)[nH]c2c1CCCC2` [IN-010, 3-[2-(2-Oxo-1,2-dihydro-indol-3-ylidenemethyl)-4,5,6,7-tetrahydro-1H-indol-3-yl]-propionamide], the IC50 in assay [1] (NIH3T3, PDGF 3.8 nM) is 3.5 µM; in assay [2] (Homo sapiens), 0.1 µM; in assay [3], 0.13 µM.

Consider `Cc1c[nH]c(C=C2C(=O)Nc3cccc(C)c32)c1CCC(=O)O` [IN-029, 3-[2-(4-Methyl-2-oxo-1,2-dihydro-indol-3-ylidenemethyl)-4-methyl-1H-pyrrol-3-yl]-propionic acid], for which the IC50 was 24.8 µM in assay [1] (NIH3T3, PDGF 3.8 nM); 0.35 µM in assay [2] (Homo sapiens); 0.2 µM in assay [3].

On to `CN(C)C(=O)CCc1c(C=C2C(=O)Nc3ccccc32)[nH]c2c1CCCC2` [IN-008, N,N-Dimethyl-3-[2-(2-oxo-1,2-dihydro-indol-3-ylidenemethyl)-4,5,6,7-tetrahydro-1H-indol-3-yl]-propionamide], for which the IC50 was 4.9 µM in assay [1] (NIH3T3, PDGF 3.8 nM); 2.2 µM in assay [2] (Homo sapiens); 0.5 µM in assay [3].

With `CN(C)CCCc1c(C=C2C(=O)Nc3ccccc32)[nH]c2c1CCCC2` [IN-009, 3-[3-(3-Dimethylamino-propyl)-4,5,6,7-tetrahydro-1H-indol-2-ylmethylene]-1,3-dihydro-indol-2-one], the IC50 turned out to be 4.2 µM in assay [1] (NIH3T3, PDGF 3.8 nM); 1.7 µM in assay [2] (Homo sapiens); 7.4 µM in assay [3].

For `O=C1Nc2ccccc2C1=Cc1[nH]c2c(c1CCC(=O)N1CCOCC1)CCCC2` [IN-011, 3-[3-(3-Morpholin-4-yl-3-oxo-propyl)-4,5 6,7-tetrahydro-1H-indol-2-ylmethylene]-1,3-dihydro-indol-2-one], the IC50 was 8.6 µM in assay [1] (NIH3T3, PDGF 3.8 nM); 9.2 µM in assay [2] (Homo sapiens); below 0.78 µM in assay [3].

On to `Cc1cccc2c1C(=Cc1[nH]c3c(c1CCC(=O)O)CCCC3)C(=O)N2` [IN-004, 3-[2-(4-Methyl-2-oxo-1,2-dihydro-indol-3-ylidenemethyl)-4,5,6,7-tetrahydro-1H-indol-3-yl]-propionic acid], for which the IC50 in assay [1] (NIH3T3, PDGF 3.8 nM) came to 13.5 µM; in assay [2] (Homo sapiens) it was 0.0025 µM; in assay [3], 0.023 µM.

In the case of `Cc1c[nH]c(C=C2C(=O)Nc3cc(Cl)ccc32)c1CCC(=O)O` [IN-030, 3-[2-(6-Chloro-2-oxo-1,2-dihydro-indol-3-ylidenemethyl)-4-methyl-1H-pyrrol-3-yl]-propionic acid], the IC50 in assay [1] (NIH3T3, PDGF 3.8 nM) was 7.9 µM; in assay [2] (Homo sapiens), 0.26 µM; in assay [3], 0.19 µM.

Turning to `COc1ccc2c(c1)NC(=O)C2=Cc1[nH]c2c(c1CCC(=O)O)CCCC2` [IN-007, 3-[2-(6-Methoxy-2-oxo-1,2-dihydro-indol-3-ylidenemethyl)-4,5,6,7-tetrahydro-1H-indol-3-yl]-propionic acid], the IC50 in assay [1] (NIH3T3, PDGF 3.8 nM) amounted to 3 µM; in assay [2] (Homo sapiens), 1.6 µM; in assay [3], 0.81 µM.

As to `O=C(CCc1c(C=C2C(=O)Nc3ccccc32)[nH]c2c1CCCC2)NCCN1CCOCC1` [IN-013, N-(2-Morpholin-4-yl-ethyl)-3-[2-(2-oxo-1,2-dihydro-indol-3-ylidenemethyl)-4,5,6,7-tetrahydro-1H-indol-3-yl]-propionamide], the half-inhibitory concentration (IC50) is 5.2 µM in assay [1] (NIH3T3, PDGF 3.8 nM); 2.1 µM in assay [2] (Homo sapiens); 0.63 µM in assay [3].

`Cc1c[nH]c(C=C2C(=O)Nc3ccc(Br)cc32)c1CCC(=O)O` [IN-031, 3-[2-(5-Bromo-2-oxo-1,2-dihydro-indol-3-ylidenemethyl)-4-methyl-1H-pyrrol-3-yl]-propionic acid]: the IC50 came out at 8.5 µM in assay [1] (NIH3T3, PDGF 3.8 nM) and 0.35 µM in assay [3].
